Consider 23 compounds from patent US12344603B2 (Genentech, Inc., priority 2020, dated 2025).

This experiment addresses IRE1α (Homo sapiens (Human), UniProt O75460, D688N). Kind of experiment: IRE1α TR-FRET competition binding assay (IRE1α HTRF). Particulars: TR-FRET competition binding to kinase domain of IRE1α. An outline of the steps: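 Kinase domain (0.25 nM) pre-bound to 2 nM Eu anti-His antibody for 1 h at 4° C in HEPES pH 7.5/MgCl2/Brij 35/DTT/gamma globulin buffer, then mixed with compounds and 2 nM Alexa 647 ATP-competitive probe. 1 h at room temperature; probe displacement read as TR-FRET (Ex 347 nm, Em 665/615 nm).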
For orientation: Time-resolved FRET reads energy transfer from a long-lived donor to a nearby acceptor.

Structures can show the parent of a compound that is named as a salt.

IRE1α, sequence (O75460 547-977 D688N): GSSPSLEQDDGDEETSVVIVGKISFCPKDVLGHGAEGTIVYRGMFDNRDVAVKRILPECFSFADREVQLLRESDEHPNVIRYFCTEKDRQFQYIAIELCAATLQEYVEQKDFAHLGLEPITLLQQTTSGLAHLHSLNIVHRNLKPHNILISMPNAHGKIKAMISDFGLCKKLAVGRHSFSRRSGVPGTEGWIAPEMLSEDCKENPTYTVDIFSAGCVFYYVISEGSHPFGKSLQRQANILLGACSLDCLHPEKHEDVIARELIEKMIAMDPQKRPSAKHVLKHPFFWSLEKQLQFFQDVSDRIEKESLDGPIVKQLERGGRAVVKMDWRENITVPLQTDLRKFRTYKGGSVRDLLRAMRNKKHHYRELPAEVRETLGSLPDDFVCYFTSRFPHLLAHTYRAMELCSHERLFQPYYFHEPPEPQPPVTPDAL

The term IC50 denotes the concentration needed to halve the response being measured. A low value points to greater potency in that assay. In the case of `CC(C)n1c(=O)c(-c2cc(F)c(NS(=O)(=O)CCC(F)(F)F)c(F)c2)nc2cnc(N[C@@H]3CC[C@@H](N(C)C)[C@H](F)C3)nc21` (stereo in doubt) [Compound 168B, N-(4-(2-((4-(Dimethylamino)-3-fluorocyclohexyl)amino)-8-isopropyl-7-oxo-7,8-dihydropteridin-6-yl)-2,6-difluorophenyl)-3,3,3-trifluoropropane-1-sulfonamide], the IC50 is 0.23 nM.

`CC(C)n1c(=O)c(-c2ccc(NS(=O)(=O)c3ccccc3Cl)c(F)c2)nc2cnc(N[C@@H]3CNC[C@@H](F)C3)nc21` [Compound 75, 2-Chloro-N-[2-fluoro-4-[2-[[(3S,5S)-5-fluoro-3-piperidyl]amino]-8-isopropyl-7-oxo-pteridin-6-yl]phenyl]benzenesulfonamide] displayed an IC50 of 0.3 nM.

`CC(C)n1c(=O)c(-c2ccc(NS(=O)(=O)c3cccnc3)c(F)c2)nc2cnc(N[C@H]3CC[C@H](N(C)C)CC3)nc21` [Compound 191, N-(4-(2-(((1r,4r)-4-(Dimethylamino)cyclohexyl)amino)-8-isopropyl-7-oxo-7,8-dihydropteridin-6-yl)-2-fluorophenyl)pyridine-3-sulfonamide hydrochloride]: the IC50 stood at 0.25 nM.

As for `CC(C)n1c(=O)c(-c2cc(F)c(NS(=O)(=O)Cc3ccc(F)cc3)cc2F)nc2cnc(N[C@H]3CC[C@H](N(C)C)CC3)nc21` [Compound 174, N-(4-(2-(((1r,4r)-4-(Dimethylamino)cyclohexyl)amino)-8-isopropyl-7-oxo-7,8-dihydropteridin-6-yl)-2,5-difluorophenyl)-1-(4-fluorophenyl)methanesulfonamide hydrochloride], the IC50 amounted to 0.26 nM.

As for `CC(C)n1c(=O)c(-c2c(F)cc(NS(=O)(=O)Cc3ccc(F)cc3)cc2F)cc2cnc(N[C@@H]3CNC[C@@H](F)C3)nc21` [Compound 130, N-(3,5-Difluoro-4-(2-(((3S,5S)-5-fluoropiperidin-3-yl)amino)-8-isopropyl-7-oxo-7,8-dihydropyrido[2,3-d]pyrimidin-6-yl)phenyl)-1-(4-fluorophenyl)methanesulfonamide hydrochloride], the IC50 is 0.38 nM.

Compound `CC(C)n1c(=O)c(-c2ccc(NS(=O)(=O)CCC(F)(F)F)c(F)c2)cc2cnc(NC3CCC(N(C)C)C(O)C3)nc21` (centres unmarked) [Compound 226, N-(4-(2-((4-(dimethylamino)-3-hydroxycyclohexyl)amino)-8-isopropyl-7-oxo-7,8-dihydropyrido[2,3-d]pyrimidin-6-yl)-2-fluorophenyl)-3,3,3-trifluoropropane-1-sulfonamide] gave an IC50 of 0.3 nM.

Turning to `CC(C)n1c(=O)c(-c2cc(F)c(NS(=O)(=O)Cc3ccc(F)cc3)c(F)c2)nc2cnc(N[C@H]3CC[C@H](N(C)C)CC3)nc21` [Example 245, N-[4-[2-[[4-(Dimethylamino)cyclohexyl]amino]-8-isopropyl-7-oxo-pteridin-6-yl]-2,6-difluoro-phenyl]-1-(4-fluorophenyl)methanesulfonamide], the IC50 came to 0.1 nM.

Turning to `CC(C)n1c(=O)c(-c2ccc(NS(=O)(=O)CC34CCC(CC3)C4)c(F)c2)nc2cnc(N[C@H]3CC[C@H](N(C)C)CC3)nc21` [Example 270, N-[4-[2-[[4-(Dimethylamino)cyclohexyl]amino]-8-isopropyl-7-oxo-pteridin-6-yl]-2-fluoro-phenyl]-1-norbornan-1-yl-methanesulfonamide], the IC50 was 0.3 nM.

Turning to `Cc1nc(NS(=O)(=O)c2ccccc2Cl)ccc1-c1cc2cnc(N[C@@H]3CNC[C@@H](F)C3)nc2n(C(C)C)c1=O` [Compound 133, 2-Chloro-N-(5-(2-(((3S,5S)-5-fluoropiperidin-3-yl)amino)-8-isopropyl-7-oxo-7,8-dihydropyrido[2,3-d]pyrimidin-6-yl)-6-methylpyridin-2-yl)benzenesulfonamide], the 50% inhibitory concentration (IC50) came to 0.62 nM.

As to `CC(C)n1c(=O)c(-c2ccc(NS(=O)(=O)c3ccccc3Cl)nc2)nc2cnc(N[C@H]3CC[C@H](N(C)CCF)CC3)nc21` [Compound 188, 2-Chloro-N-(5-(2-(((1r,4r)-4-((2-fluoroethyl)(methyl)amino)cyclohexyl)amino)-8-isopropyl-7-oxo-7,8-dihydropteridin-6-yl)pyridin-2-yl)benzenesulfonamide hydrochloride], the concentration for half-maximal inhibition (IC50) was determined as 0.27 nM.

As to `COCCN(C)[C@H]1CC[C@H](Nc2ncc3cc(-c4cc(F)c(NS(=O)(=O)Cc5ccc(F)cc5)c(F)c4)c(=O)n(C(C)C)c3n2)CC1` [Compound 122, N-(2,6-Difluoro-4-(8-isopropyl-2-(((1r,4r)-4-((2-methoxyethyl)(methyl)amino)cyclohexyl)amino)-7-oxo-7,8-dihydropyrido[2,3-d]pyrimidin-6-yl)phenyl)-1-(4-fluorophenyl)methanesulfonamide], the IC50 came out at 0.12 nM.

`CCC1CCN(c2ccc(-c3cc4cnc(N[C@@H]5CNC[C@@H](F)C5)nc4n(CC)c3=O)c(F)c2F)C1=O` (stereo partly drawn) [Compound 41, 8-Ethyl-6-(4-(3-ethyl-2-oxopyrrolidin-1-yl)-2,3-difluorophenyl)-2-(((3S,5S)-5-fluoropiperidin-3-yl)amino)pyrido[2,3-d]pyrimidin-7(8H)-one] displayed a 50% inhibitory concentration (IC50) of 87 nM.

`Cn1c(=O)c(-c2cccc3c(NS(=O)(=O)CCC(F)(F)F)c(F)ccc23)cc2cnc(N[C@H]3CCCNC3)nc21` [Compound 4, (S)-3,3,3-Trifluoro-N-(2-fluoro-5-(8-methyl-7-oxo-2-(piperidin-3-ylamino)-7,8-dihydropyrido[2,3-d]pyrimidin-6-yl)naphthalen-1-yl)propane-1-sulfonamide] yielded a half-inhibitory concentration (IC50) of 5 nM.

`COCCN1CC2(CCC(Nc3ncc4cc(-c5ccc(NS(=O)(=O)CCC(F)(F)F)c(F)c5)c(=O)n(C(C)C)c4n3)CC2)C1` [Example 234, 3,3,3-Trifluoro-N-(2-fluoro-4-(8-isopropyl-2-((2-(2-methoxyethyl)-2-azaspiro[3.5]nonan-7-yl)amino)-7-oxo-7,8-dihydropyrido[2,3-d]pyrimidin-6-yl)phenyl)propane-1-sulfonamide] yielded an IC50 of 0.2 nM.

Turning to `Cc1nc(NS(=O)(=O)c2ccccc2Cl)ccc1-c1cc2cnc(N[C@H]3CC[C@H](N(C)C)CC3)nc2n(C(C)C)c1=O` [Compound 135, 2-Chloro-N-(5-(2-(((1r,4r)-4-(dimethylamino)cyclohexyl)amino)-8-isopropyl-7-oxo-7,8-dihydropyrido[2,3-d]pyrimidin-6-yl)-6-methylpyridin-2-yl)benzenesulfonamide], the IC50 was 0.43 nM.

`CC(C)n1c(=O)c(-c2ccc(NS(=O)(=O)Cc3ccc(F)cc3)c(F)c2)nc2cnc(N[C@H]3CC[C@H](N(C)CCF)CC3)nc21` [Compound 176, N-(2-Fluoro-4-(2-(((1r,4r)-4-((2-fluoroethyl)(methyl)amino)cyclohexyl)amino)-8-isopropyl-7-oxo-7,8-dihydropteridin-6-yl)phenyl)-1-(4-fluorophenyl)methanesulfonamide] returned an IC50 of 0.14 nM.

In the case of `O=c1c(-c2cc(F)c(NS(=O)(=O)Cc3ccccc3)c(F)c2F)cc2cnc(N[C@@H]3CNC[C@@H](F)C3)nc2n1C1CC(F)(F)C1` [Compound 55, N-(4-(8-(3,3-Difluorocyclobutyl)-2-(((3S,5S)-5-fluoropiperidin-3-yl)amino)-7-oxo-7,8-dihydropyrido[2,3-d]pyrimidin-6-yl)-2,3,6-trifluorophenyl)-1-phenylmethanesulfonamide hydrochloride], the IC50 came out at 0.42 nM.

`CC(C)n1c(=O)c(-c2ccc(NS(=O)(=O)N(C)C)c(F)c2)nc2cnc(N[C@@H]3CNC[C@@H](F)C3)nc21` [Compound 164, 6-(4-(Dimethylsulfamoylamino)-3-fluoro-phenyl)-2-(((3S,5S)-5-fluoro-3-piperidyl)amino)-8-isopropyl-7-oxo-pteridine] had an IC50 of 0.43 nM.

As to `O=c1c(-c2ccc(NS(=O)(=O)Cc3ccccc3)c(F)c2F)cc2cnc(N[C@@H]3CNC[C@@H](F)C3)nc2n1CCF` [Compound 53, N-(2,3-Difluoro-4-(8-(2-fluoroethyl)-2-(((3S,5S)-5-fluoropiperidin-3-yl)amino)-7-oxo-7,8-dihydropyrido[2,3-d]pyrimidin-6-yl)phenyl)-1-phenylmethanesulfonamide], the IC50 is 0.71 nM.

`CC(C)n1c(=O)c(-c2cc(F)c(NS(=O)(=O)CCC(F)(F)F)c(F)c2)nc2cnc(N[C@H]3CC[C@H](N(C)C)CC3)nc21` [Example 239, N-[4-[2-[[4-(Dimethylamino)cyclohexyl]amino]-8-isopropyl-7-oxo-pteridin-6-yl]-2,6-difluoro-phenyl]-3,3,3-trifluoro-propane-1-sulfonamide] yielded an IC50 of 0.2 nM.

As for `CC(C)n1c(=O)c(-c2ccc(NS(=O)(=O)CCC(F)(F)F)c(F)c2)cc2cnc(N[C@H]3CC[C@H](N(C)C)CC3)nc21` [Compound 91, N-(4-(2-(((1r,4r)-4-(Dimethylamino)cyclohexyl)amino)-8-isopropyl-7-oxo-7,8-dihydropyrido[2,3-d]pyrimidin-6-yl)-2-fluorophenyl)-3,3,3-trifluoropropane-1-sulfonamide], the IC50 was determined as 0.13 nM.

On to `CC(C)n1c(=O)c(-c2ccc(NS(=O)(=O)Cc3ccc(C#N)cc3)c(F)c2)nc2cnc(N[C@@H]3CNC[C@@H](F)C3)nc21` [Compound 81, 1-(4-Cyanophenyl)-N-[2-fluoro-4-[2-[[(3S,5S)-5-fluoro-3-piperidyl]amino]-8-isopropyl-7-oxo-pteridin-6-yl]phenyl]methanesulfonamide], for which the IC50 came out at 0.1 nM.

`CCn1c(=O)c(-c2cc(F)c(NS(=O)(=O)Cc3ccccn3)c(F)c2F)cc2cnc(N[C@@H]3CNC[C@@H](F)C3)nc21` [Compound 49, N-(4-(8-ethyl-2-(((3S,5S)-5-fluoropiperidin-3-yl)amino)-7-oxo-7,8-dihydropyrido[2,3-d]pyrimidin-6-yl)-2,3,6-trifluorophenyl)-1-(pyridin-2-yl)methanesulfonamide]: the IC50 turned out to be 5 nM.
